In PMC7096398, “Oxytocin Receptors Regulate Social Preference in Zebrafish” (Scientific Reports, 2020):
“Also recorded” adds a separate entry of the source.

Key:
OT receptor = conditions: cited from earlier work
Source text: Intriguingly, the non-peptidergic OT receptor antagonist L-368,8 ...

adult zebrafish [1] = experiment: Shoaling test in adult zebrafish; format: in vivo, zebrafish (Danio rerio)
Method: (§1) Adult and larval behavioural testing was performed between 9 AM and 4 PM. All fish were fed prior to and after experiments, and larvae were also given an additional feed at midday. Adult fish were of a 1:1 sex ratio, and focal fish and stimulus fish were size-matched. Adult fish and shoals were filmed using a web camera and Debut Video Capture Software (NCH Software, Greenwood Village, USA), and videos were analysed using EthoVision version 11 (Noldus, Wageningen, the Netherlands).
The shoaling test was performed to examine the effects of L-368,899 on social group behaviour, a test widely used to assess shoaling sensitivity to various drugs and experimental settings[75],[76].
The experimental setup comprised a 1.8 L trapezoidal tank (height 16 cm × length at the top 26 cm × length at the bottom 23 cm × width 6 cm, Aquaneering, San Diego, USA). Fifty-six zebrafish were randomly grouped into shoals of four (two males and two females) three days prior to the experiment. […] On day four all shoal members were weighed and injected with either fish Ringer’s (n = 6 shoals) or L-368,899 (n = 7 shoals), using the same procedure described above. Shoals were returned to their respective holding tanks for one hour to recover, and then gently transferred to test tanks, in which they were filmed for 15 minutes.
(§2) All data for the social preference and novel tank diving experiments in adults were extracted as processed means per minute from EthoVision. For the shoaling experiments, raw data was exported from EthoVision, and then post-processed by an in-house script written in Python 3.4, in order to compute IFD, NND, and FND as described elsewhere. For timelines, repeated measures analysis of variance (RM-ANOVA) was used. For pairwise comparisons of total means between groups, Student’s T-tests were used.

adult zebrafish [2] = experiment: Novel tank diving in adult zebrafish; format: in vivo, zebrafish (Danio rerio)
Method: as §1
A novel tank diving test was executed individually in order to examine the effect of the antagonist on anxiety in zebrafish. Anxiety-like behaviour in zebrafish is evident in a tendency to move towards the bottom of novel environments. The novel tank diving test used here has been described elsewhere. In brief, the same procedure as for the shoaling test described above was used, except that fish were housed in groups of 4–6 individuals 24 hours prior to the experiment in order to keep netting and potential stress to a minimum, and each fish was placed the test tank individually. A total of 20 vehicle-treated fish and 20 antagonist-treated fish were tested.
as §2

larval zebrafish = experiment: Social preference in larval zebrafish; format: in vivo, zebrafish (Danio rerio); conditions: 100 µM immersion 1 h
Method: The social preference test for young zebrafish has been described elsewhere. In brief, experiments were performed in custom-built arenas; see Fig. 5, consisting of laser-cut 5 mm high white acrylic walls placed on transparent flooring with transparent acrylic partitions. The dimensions of each arena were 40 × 32 mm, and the chambers containing stimulus fish was 15 × 15 mm. The areas in front of these stimulus compartments were designated Social Area (where the stimulus was placed) or Non-Social Area (where the stimulus was not placed). The water depth was 5 mm, and water parameters matched the ones housing water parameters. Nine arenas were placed adjacent to each other on an infrared (IR) back-light diffusing both IR and white light (Noldus, Wageningen, the Netherlands), with a digital monochrome high resolution GigE camera overhead (Noldus, Wageningen, the Netherlands), and surrounded by an opaque enclosure.
A 10 mM stock solution was prepared by dissolving L-368,899 in H2O (Milli-Q water purification system), and subsequently stored at −20 °C. The stock solution was diluted to a working concentration of 100 µM by addition of water adjusted to the same parameters kept in the fish facility. Larvae were immersed in 100 µM L-368,899 solution (treated fish) or in water matching housing conditions (control fish) for 1 hour prior to testing. Focal larvae were then transferred to test arenas and filmed for 15 minutes, with no stimulus present (acclimation period; AC). Following this, one stimulus larva was placed in a randomly selected stimulus chamber of each arena, and focal larvae were filmed for another 15 minutes (social cue period; SC). A total of 137 vehicle-treated fish and 109 antagonist-treated fish were tested, and after using the exclusion criteria described below, 87 vehicle-treated fish and 77 antagonist-treated fish were included in the statistical analyses.
Larval results were analysed using a social preference index (SPI). SPI was calculated by subtracting the time a focal larva spent in the Non-Social Area from the time it spent in the Social Area, and then dividing the result by the total time the larva was tracked in the entire arena. […] SPI was calculated for each focal larva for the AC period and the SC period separately. […] All data was analysed using paired T-tests to investigate change within the control and treated groups, and Student’s T-tests to investigate difference between the groups for each phase.

For `Cc1ccccc1N1CCN(S(=O)(=O)C[C@]23CC[C@H](C[C@@H]2NC(=O)[C@@H](N)CCS(C)(=O)=O)C3(C)C)CC1` [L-368,899], the “Inhibition of the OT receptor in mammals” value (OT receptor) is listed as “specifically inhibit the mammalian OT receptor”, the “Shoaling parameters vs vehicle, outlier vehicle shoal included” value (adult zebrafish [1]; IFD, NND, FND, including outlier shoal) is listed as “no significant differences” and the “Social behaviour: Nearest neighbour distance” value (adult zebrafish [1]; adult shoaling, shoals of four, 100 µg per gram fish i.p., 1 h before 15 min test, mean ± SEM, n = 7 shoals, vehicle 3.3 ± 0.2) is listed as 3.7 ± 0.1 cm. The “Social behaviour: Interfish distance” value (adult zebrafish [1]; adult shoaling, shoals of four, 100 µg per gram fish i.p., 1 h before 15 min test, mean ± SEM, n = 7 shoals, vehicle 5.9 ± 0.3) was 6.7 ± 0.2 cm, the “Social behaviour: Furthest neighbour distance” value (adult zebrafish [1]; adult shoaling, shoals of four, 100 µg per gram fish i.p., 1 h before 15 min test, mean ± SEM, n = 7 shoals, vehicle 8.7 ± 0.5) was 9.8 ± 0.2 cm and the “Locomotion: Velocity” value (adult zebrafish [1]; adult shoaling, shoals of four, 100 µg per gram fish i.p., 1 h before 15 min test, mean ± SEM, vehicle 3.6 ± 0.2, p = 0.30) was 3.2 ± 0.3 cm/s. For the same compound, the “Locomotion: Distance” value (adult zebrafish [1]; adult shoaling, shoals of four, 100 µg per gram fish i.p., 1 h before 15 min test, mean ± SEM, vehicle 207 ± 15, p = 0.37) was 186 ± 17 cm/min, the “Shoaling, in words” value (adult zebrafish [1]; adult zebrafish) was “potentially also shoaling behaviour; also recorded: tentative and small effect” and the “Activity parameters vs vehicle, shoaling test” value (adult zebrafish [1]; average distance p = 0.37, average velocity p = 0.30) was “no significant differences”. The “Inter-fish distance (IFD) vs vehicle, outlier excluded” value (adult zebrafish [1]; t(10) = 2.276, p = 0.046) was “significantly more spread out”, the “Nearest neighbour distance (NND) vs vehicle, outlier excluded” value (adult zebrafish [1]; t(10) = 2.324, p = 0.042) was “significantly more spread out” and the “Anxiety behaviour: Distance to bottom” value (adult zebrafish [2]; adult novel tank diving, i.p., 1 h before test, mean ± SEM, n = 20, vehicle 2.7 ± 0.4) was 3.1 ± 0.4 cm. For the same compound, the “Locomotion: Velocity” value (adult zebrafish [2]; adult novel tank diving, i.p., 1 h before test, mean ± SEM, n = 20, vehicle 3.1 ± 0.2, p = 0.47) was 2.9 ± 0.2 cm/s, the “Anxiety behaviour: Duration in top zone” value (adult zebrafish [2]; adult novel tank diving, i.p., 1 h before test, mean ± SEM, n = 20, vehicle 7.0 ± 2.4) was 8.8 ± 2.4 s/min and the “Locomotion: Distance” value (adult zebrafish [2]; adult novel tank diving, i.p., 1 h before test, mean ± SEM, n = 20, vehicle 186 ± 11, p = 0.49) was 174 ± 14 cm/min. The “Anxiety behaviour: Latency to top zone” value (adult zebrafish [2]; adult novel tank diving, i.p., 1 h before test, mean ± SEM, n = 20, vehicle 327 ± 58) was 387 ± 81 s, the “Anxiety, in words” value (adult zebrafish [2]; adults, antagonist vs vehicle) was “did not affect anxiety; also recorded: no differences in any of the anxiety parameters” and the “Activity parameters vs vehicle, novel tank diving test” value (adult zebrafish [2]; average distance p = 0.49, average velocity p = 0.47) was “no significant differences”. The “Social preference in larvae, in words” value (larval zebrafish) was “decreased social preference”, the “Increase in SPI from acclimation to social cue” value (larval zebrafish; t(76) = 0.177, p = 0.86, vehicle larvae significantly increased, p = 0.039) was “not present” and the “SPI during the social cue period vs vehicle” value (larval zebrafish; t(162) = 1,98, p = 0.049) was “significantly lower SPI”. For the same compound, the “Social Preference Index (AC)” value (larval zebrafish; 3-week-old larvae, acclimation phase, mean ± SEM, n = 77, vehicle 0.06 ± 0.04) was 0.00 ± 0.05, the “Locomotion (AC): Velocity” value (larval zebrafish; 3-week-old larvae, acclimation phase, mean ± SEM, n = 77, vehicle 0.28 ± 0.01) was 0.30 ± 0.02 cm/s and the “Locomotion (AC): Distance” value (larval zebrafish; 3-week-old larvae, acclimation phase, mean ± SEM, n = 77, vehicle 249 ± 12) was 265 ± 14 cm/min. The “Social Preference Index (SC)” value (larval zebrafish; 3-week-old larvae, social cue phase, mean ± SEM, n = 77, vehicle 0.18 ± 0.05) was 0.01 ± 0.06.
